According to publication PMC9385704, “A tubulin binding molecule drives differentiation of acute myeloid leukemia cells” (iScience, 2022):

Target: tubulin beta chain (TUBB) (Homo sapiens, UniProt P07437)
Assay: competition with photoaffinity probe […] in HL-60 cells; pull-down LC-MS/MS and anti-TUBB immunoblot
Type: cell-based

Chain of tubulin beta chain (TUBB) (P07437 whole entry): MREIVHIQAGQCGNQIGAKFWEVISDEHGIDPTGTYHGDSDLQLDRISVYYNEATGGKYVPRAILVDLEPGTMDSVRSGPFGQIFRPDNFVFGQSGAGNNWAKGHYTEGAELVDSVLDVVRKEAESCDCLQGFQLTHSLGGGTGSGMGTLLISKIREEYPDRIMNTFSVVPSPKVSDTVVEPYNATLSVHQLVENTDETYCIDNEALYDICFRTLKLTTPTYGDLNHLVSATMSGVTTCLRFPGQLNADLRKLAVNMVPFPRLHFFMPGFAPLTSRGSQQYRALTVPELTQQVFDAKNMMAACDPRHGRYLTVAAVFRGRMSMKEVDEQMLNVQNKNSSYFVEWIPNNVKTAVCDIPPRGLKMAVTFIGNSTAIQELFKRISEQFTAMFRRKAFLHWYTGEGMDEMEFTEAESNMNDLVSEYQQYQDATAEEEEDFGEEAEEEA

Cc1cc(C#N)ccc1-c1cc2c(cn1)ncn2-c1ccc2c(C)n[nH]c2c1 [compound 5, 3-Methyl-4-[1-(3-methyl-1H-indazol-6-yl)imidazo[4,5-c]pyridin-6-yl]benzonitrile]
competition with photoaffinity probe 4 in HL-60 cells; pull-down LC-MS/MS and an: The results clearly show concentration-dependent competition with OXS0082555 and paclitaxel confirming tubulin beta chain as a direct target
